Results as given in PubChem BioAssay AID2423 (Broad Institute, 2010).
Results filed as inconclusive are left out. Active and inactive are the calls of the source. The rule behind the calls is not given here.

Tested on: C. albicans CaCi-8 + fluconazole, Alamar Blue growth, 48 h
Experiment: resistant C. albicans growth inhibition with fluconazole, dose response, CaCi-8 strain, Alamar Blue fluorescence (AID 2423)

| Structure (SMILES) | EC50 |
| --- | --- |
| Cc1cccc(-n2c(SCc3cc(=O)n4ccsc4n3)nc3ccccc32)c1 | > 15 µM (inactive) |
| O=[N+]([O-])c1ccc(O)c(/C=N/Nc2ccc(Cl)nn2)c1 | 1.8 µM |
| Cc1ccc(-c2nnc(NC(=O)c3ccc([N+](=O)[O-])o3)o2)c(C)c1 | 2.16 µM |
| O=C(N/N=C/c1cc([N+](=O)[O-])ccc1O)c1ccc(COc2ccc3c(c2)CCC3)o1 | 0.915 µM |
| CCn1c(Sc2nc(C)nc3scc(-c4cccs4)c23)n[nH]c1=O | 0.703 µM |
| CN(C)S(=O)(=O)c1cccc(NC(=S)N/N=C/c2ccc(O)c(O)c2O)c1 | 2.67 µM |
| CCN(CC)c1nc(N)c2c(N)nc3c(c2c1C#N)CC(c1ccccc1)O3 (stereo not given) | > 16 µM (inactive) |
| O=c1c2cc(Br)ccc2nc(-c2ccc([N+](=O)[O-])cc2)n1O | 1.14 µM |
| O=C(CCCCCN1C(=O)c2cccc3cccc(c23)C1=O)N1CCOCC1 | > 15 µM (inactive) |
| Cn1cc(C(c2ccccn2)c2cn(C)c3ccccc23)c2ccccc21 | 0.185 µM |
| O=C(N/N=C/c1cc2c3c(c1O)CCCN3CCC2)c1ccccc1O | 0.895 µM |
| Cn1c(/C=N/Nc2nc3ccccc3[nH]2)nc2ccccc21 | > 16 µM (inactive) |
| O=C(CCl)N1c2ccccc2CCc2ccccc21 | 1.01 µM |
| COc1cccc(/C=N/Nc2ncnc3scc(-c4ccccc4)c23)c1O | 1.19 µM |
| CC(C)c1ccc(OCC(=O)Nc2cccc(C(=O)Nc3ccccc3C(=O)O)c2)cc1 | > 15 µM (inactive) |
| O=[N+]([O-])c1nn(-c2ccc(Cl)cc2)n(O)c1=NCc1cccnc1 | 1.83 µM |
| CC(=O)Nc1ccc(Nc2c3ccccc3nc3ccccc23)cc1 | 5.98 µM |
| CCCCn1c(SCC(=O)Nc2cccc(OC)c2)nc2ccc(N3CCOCC3)cc2c1=O | 3.63 µM |
| Cc1ccc(NS(=O)(=O)c2ccc(CCC(=O)NCCO)cc2)cc1 | > 15 µM (inactive) |
| COc1ccc(/C=C/c2cc(-c3ccc(C)cc3)o[n+]2C)cc1 | 1.65 µM |
| C[C@@H]1CC[C@@]2(NC1)O[C@H]1C[C@H]3[C@@H]4CC=C5C[C@@H](O)CC[C@]5(C)[C@H]4CC[C@]3(C)[C@H]1[C@@H]2C | 0.132 µM |
| CC1CCc2c(sc3ncnc(N4CCOCC4)c23)C1 (stereo not given) | > 16 µM (inactive) |

| Structure (SMILES) | EC50 |
| --- | --- |
| O=C(Nc1ccccc1O)c1ccccc1O | 0.784 µM |
| CCN1/C(=C/c2ccc3cccc(C)c3[n+]2CC)Sc2ccccc21 | < 0.12 µM |
| O=C(CCl)N(c1ccc(Cl)cc1)c1c[nH]c2ccccc12 | 6.41 µM |
| Cc1cc(/C=N/n2c(COc3ccccc3C)nc3ccccc3c2=O)c(O)c([N+](=O)[O-])c1 | 1.62 µM |
| CSc1ncc(Cl)c(C(=O)C(C#N)c2nc3c(C)cc(C)cc3c(=O)[nH]2)n1 (stereo not given) | > 16 µM (inactive) |
| CCOC(=O)c1c(NC(=O)CN2CCN(C(=O)c3ccco3)CC2)sc2c1CCCC2 | > 15 µM (inactive) |
| CC(C)(C)C1CCC(OC(=O)C[N+]2(C)CCCCC2)CC1 (stereo not given) | 11.3 µM |
| CN(C)CCCNc1cc(C(C)(C)C)nc2c(-c3ccc(Cl)cc3)cnn12 | 5.2 µM |
| Cc1ccc(/C=C/C(=O)c2ccccc(=O)c2O)cc1C | 2.71 µM |
| O=C(Cc1cccs1)Nc1cccc(-c2nc3ccccc3[nH]2)c1 | 0.798 µM |
| O=c1c2ccccc2nc(-c2ccc([N+](=O)[O-])cc2)n1O | 6.52 µM |
| O=C(/C(=N/N=C/c1ccc(O)c(O)c1O)c1ccccc1)c1ccccc1 | 2.29 µM |
| CCSc1nnc(-c2ccc(C)cc2)c2ccccc12 | 0.193 µM |
| COc1cc(-c2nnc(SCc3cc(=O)oc4cc(O)c(O)cc34)o2)cc(OC)c1OC | 4.39 µM |
| COc1ccc(C(=O)NC(=S)NNC(=O)CCc2ccccc2)cc1 | 3.21 µM |
| CCOc1ccc(NC(=O)c2cn(-c3ccc(OCC)cc3)c(=O)c3cc(OC)c(OC)cc23)cc1 | 0.485 µM |
| O=c1cnnc(N/N=C/c2ccccn2)[nH]1 | 0.875 µM |
| COc1ccc(C2c3ccc4ccccc4c3Oc3ncn(CCN4CCOCC4)c(=N)c32)cc1 (stereo not given) | 1.18 µM |
| CCn1c(COc2ccc(=O)n(-c3ccccc3)n2)nnc1SCc1cccc(OC)c1 | > 16 µM (inactive) |
| Cc1n[nH]c(C)c1CCNCc1ccc(OCC(O)CN2CCCCC2)cc1 (stereo not given) | > 15 µM (inactive) |
| O=C(COc1ccc(Cl)cc1Cl)N1CCCN(C(=O)COc2ccc(Cl)cc2Cl)CC1 | 1.48 µM |
| Cn1c(SCC(=O)N2CCCc3ccccc32)nnc1-c1ccccc1 | > 16 µM (inactive) |

| Structure (SMILES) | EC50 |
| --- | --- |
| Cc1ccc(NC(=O)c2ccc([N+](=O)[O-])o2)cc1C | 1.13 µM |
| COc1cccc(C2C(C(=O)c3cc4ccccc4o3)=C(O)C(=O)N2c2cc(C)on2)c1OC (stereo not given) | 0.154 µM |
| Cc1cc2c(cc(C(=O)OCC(=O)NCc3ccco3)n2C)s1 | 6.46 µM |
| O=C(Cc1ccc(Cl)cc1)NNC(=S)NC(=O)c1cccs1 | 1.57 µM |
| CCOC(=O)CC(/C(C)=N\O)c1ccccc1 (stereo not given) | > 16 µM (inactive) |
| Cc1ccc(-c2cn(-c3ccccc3)c3[n+]2CCCS3)cc1 | 10.3 µM |
| NC(=S)NNc1cccc(Cl)c1 | > 16 µM (inactive) |
| Clc1ccccc1C(c1ccccc1)(c1ccccc1)n1ccnc1 | 0.133 µM |
| COCCCN1C(=O)C(=O)/C(=C(/O)c2ccc(OCC(C)C)cc2C)C1c1cccnc1 (stereo not given) | > 15 µM (inactive) |
| COC(=O)C1CCN(Cc2c(C(=O)N3C[C@@H](C)O[C@@H](C)C3)nc3ccc(Cl)cn23)CC1 | > 15 µM (inactive) |
| Cn1c(=O)n(CC#N)c2ccccc21 | 14.8 µM |
| Cc1ccc(C(=O)Nc2cccc(-c3cn4ccccc4n3)c2)cc1 | 0.326 µM |
| Oc1ccccc1/C=N/Nc1nccnc1Cl | 1.28 µM |
| COc1ccc(-c2nnc(NC(=O)c3ccc(S(=O)(=O)N4CCc5ccccc5C4)cc3)o2)cc1 | 0.747 µM |
| CCCOc1ccc(C(=O)NNC(=S)NC(=O)CC)cc1 | 0.937 µM |
| CC(C)(C)C(=O)NC(=S)NNC(=O)C(c1ccccc1)c1ccccc1 | 2.16 µM |
| O=[N+]([O-])CC(c1ccccc1)P(=O)(c1ccccc1)c1ccccc1 (stereo not given) | 1.89 µM |
| Cc1ccc(O)c(C(=O)CC(=O)c2ccccc2Cl)c1 | 1.57 µM |
| CCOc1ccc(N=Nc2ccc(O)c3ncccc23)cc1 | 1.15 µM |
| CNC(=O)c1ccc2c(c1)nnn2C | > 15 µM (inactive) |
| C=CCNC(=S)N/N=C/c1ccc(-c2ccc(OC)cc2)o1 | 4 µM |
